For the test, the target named is human LPAR1 (Homo sapiens, UniProt Q92633). Kind of test: LPAR1 intracellular calcium mobilization assay (antagonist mode, FLIPR). It is filed as cell-based. Particulars: CHO-K1 EDG2 cells expressing human LPAR1; test compound 0.5 nM to 10 μM pre-incubated 60 minutes at 37° C., then LPA 18:2 at EC80 concentration (100 nM). The protocol: In vitro LPAR1 activity was measured in an intracellular calcium mobilization assay. CHO-K1 EDG2 cells (DiscoverX cat #93-0644C2) expressing human LPAR1 (NM_001401.3) were seeded in a total volume of 25 μL of Dulbecco's Modification of Eagle's Medium (DMEM) with 10% Fetal Bovine Serum, 1× PenStrepGlutamine, 300 μg/ml Hygromycin, and 800 μg/ml G418 into 384-well tissue culture plate (Grenier #781091) at 15,000 cells/well and incubated at 37° C. overnight. Prior to testing, 25 μL Calcium Loading Dye Component A (FLIPR Calcium 6 Assay Kit Molecular Device # R8190) and 2.5 mM Probenecid (Invitrogen # P36400, prepared fresh) in Hank's Balanced Salt Solution (Corning #21-023-CV), 20 mM HEPES (Corning #25-060-CI), 0.1% Bovine Serum Albumin (Sigma-Aldrich # A7906-500G) was add to the cells for 60 minutes at 37° C.
Chain of human LPAR1 (Q92633 whole entry): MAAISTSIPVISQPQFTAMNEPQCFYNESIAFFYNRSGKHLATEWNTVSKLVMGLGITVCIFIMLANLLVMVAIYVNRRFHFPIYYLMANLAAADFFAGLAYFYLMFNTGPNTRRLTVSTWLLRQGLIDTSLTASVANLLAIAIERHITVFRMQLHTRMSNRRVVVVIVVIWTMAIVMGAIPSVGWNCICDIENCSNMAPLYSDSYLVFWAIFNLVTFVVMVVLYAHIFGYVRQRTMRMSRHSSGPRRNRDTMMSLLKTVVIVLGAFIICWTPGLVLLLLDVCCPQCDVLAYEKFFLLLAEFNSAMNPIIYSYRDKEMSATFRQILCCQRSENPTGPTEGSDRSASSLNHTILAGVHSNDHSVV
Agonist dose curves of LPA 18:2 (Avanti Polar Lipids cat #857138, 0.5 nM to 10 μM) were recorded to determine the LPA 18:2 EC80 for subsequent antagonist assays. For agonist dose curves, cells were removed from the incubator 2 hours after dye loading and transferred to the FLIPR Tetra instrument (Molecular Devices, San Jose, CA). Calcium mobilization was monitored for 5 min and 10 μL 6×LPA in HBSS/20 mM Hepes/0.1% bovine serum albumin (BSA) was added to the cells 5 seconds into the assay.
To determine the LPAR1 antagonist activity of test compounds, cells were pre-incubated with test compound at a dose range of 0.5 nM to 10 μM, followed by LPA at EC80 concentration (100 nM). After dye loading, cells were removed from the incubator and 0.3 μL of 200× antagonist was added. Cells were incubated for 60 minutes at 37° C. Antagonist activity was measured on a FLIPR Tetra. Calcium mobilization was monitored for 3.5 minutes and 10 μL 6×EC80 LPA in HBSS, 20 mM HEPES, and 0.1% BSA was added to the cells 5 seconds into the assay. Signal amplitude (Maximum minus minimum) values were plotted against log10 of antagonist concentration using Dose Response Tool (Gilead Sciences Inc.) to determine […].
To assess the antagonistic potential of exemplified compounds […] were determined for Compounds 1 to 66 in the LPAR1 calcium mobilization assay. The compound numbers correspond to the compound numbers in Examples 1 to 18. N/A=not available.
Turning to `C[C@@H](OC(=O)Nc1c(-c2ccc(C(=O)Nc3ccncc3)cn2)nnn1C)c1cccnc1Cl` [Compound 1, (R)-1-(2-chloropyridin-3-yl)ethyl (1-methyl-4-(5-(pyridin-4-ylcarbamoyl)pyridin-2-yl)-1H-1,2,3-triazol-5-yl)carbamate], the half-maximal effective concentration (EC50) amounted to 75.8 nM.
With `C[C@@H](OC(=O)Nc1c(-c2ccc(C(=O)NC34CC(Cl)(C3)C4)cn2)nnn1C)c1cccnc1Cl` [Compound 2, (R)-1-(2-chloropyridin-3-yl)ethyl (4-(5-((3-chlorobicyclo[1.1.1]pentan-1-yl)carbamoyl)pyridin-2-yl)-1-methyl-1H-1,2,3-triazol-5-yl)carbamate] the figure was 8.1 nM; with `C[C@@H](OC(=O)Nc1c(-c2ccc(C(=O)NC3CC(F)(F)C3)cn2)nnn1C)c1cccnc1Cl` [Compound 3, (R)-1-(2-chloro-pyridin-3-yl)-ethyl (4-(5-((3,3-difluoro-cyclobutyl)-carbamoyl)-pyridin-2-yl)-1-methyl-1H-1,2,3-triazol-5-yl)carbamate], 1420 nM; with `C[C@@H](OC(=O)Nc1c(-c2ccc(C(=O)NC34CC(F)(C3)C4)cn2)nnn1C)c1cccnc1Cl` [Compound 4, (R)-1-(2-chloro-pyridin-3-yl)-ethyl (4-(5-((3-fluorobicyclo-[1.1.1]pentan-1-yl)carbamoyl)-pyridin-2-yl)-1-methyl-1H-1,2,3-triazol-5-yl)carbamate], 142 nM.
The result for `C[C@@H](OC(=O)Nc1c(-c2ccc(C(=O)NC34CC(C#N)(C3)C4)cn2)nnn1C)c1cccnc1Cl` [Compound 5, (R)-1-(2-chloro-pyridin-3-yl)-ethyl (4-(5-((3-cyanobicyclo [1.1.1]pentan-1-yl)carbamoyl)-pyridin-2-yl)-1-methyl-1H-1,2,3-triazol-5-yl)carbamate] reads 42.9 nM.
With `C[C@@H](OC(=O)Nc1c(-c2ccc(C(=O)NC34CC(C(F)F)(C3)C4)cn2)nnn1C)c1cccnc1Cl` [Compound 6] the figure was 56.1 nM.
As to `C[C@@H](OC(=O)Nc1c(-c2ccc(C(=O)Nc3cccnc3)cn2)nnn1C)c1cccnc1Cl` [Compound 7, (R)-1-(2-chloro-pyridin-3-yl)-ethyl (1-methyl-4-(5-(pyridin-3-ylcarbamoyl)-pyridin-2-yl)-1H-1,2,3-triazol-5-yl)carbamate], the EC50 turned out to be 334 nM.
The result for `C[C@@H](OC(=O)Nc1c(-c2ccc(C(=O)NC34CC(C)(C3)C4)cn2)nnn1C)c1cccnc1Cl` [Compound 8, (R)-1-(2-chloro-pyridin-3-yl)-ethyl (1-methyl-4-(5-((3-methyl-bicyclo[1.1.1]-pentan-1-yl)-carbamoyl)-pyridin-2-yl)-1H-1,2,3-triazol-5-yl)carbamate] reads 30.4 nM; that for `C[C@@H](OC(=O)Nc1c(-c2ccc(C(=O)Nc3ccc(F)nc3)cn2)nnn1C)c1cccnc1Cl` [Compound 9, (R)-1-(2-chloro-pyridin-3-yl)-ethyl (4-(5-((6-fluoropyridin-3-yl)carbam-oyl)pyridin-2-yl)-1-methyl-1H-1,2,3-triazol-5-yl)carbamate], 325 nM; that for `C[C@@H](OC(=O)Nc1c(-c2ccc(C(=O)NC34CC(C3)C4)cn2)nnn1C)c1cccnc1Cl` [Compound 10, (R)-1-(2-chloro-pyridin-3-yl)-ethyl (4-(5-(bicyclo[1.1.1]-pentan-1-yl-carbamoyl)-pyridin-2-yl)-1-methyl-1H-1,2,3-triazol-5-yl)carbamate], 439 nM.
On to `COC12CC(NC(=O)c3ccc(-c4nnn(C)c4NC(=O)O[C@H](C)c4cccnc4Cl)nc3)(C1)C2` [Compound 11, (R)-1-(2-chloro-pyridin-3-yl)-ethyl (4-(5-((3-methoxybicyclo-[1.1.1]pentan-1-yl)carbamoyl)-pyridin-2-yl)-1-methyl-1H-1,2,3-triazol-5-yl)carbamate], for which the EC50 came out at 62.7 nM.
With `COC(=O)C12CC(NC(=O)c3ccc(-c4nnn(C)c4NC(=O)O[C@H](C)c4cccnc4Cl)nc3)(C1)C2` [Compound 12, (R)-methyl 3-(6-(5-(((1-(2-chloro-pyridin-3-yl)-ethoxy)carbon-yl)amino)-1-methyl-1H-1,2,3-triazol-4-yl)nicotinamido)-bicyclo[1.1.1]-pentane-1-carbox-ylate] the figure was 26.5 nM; with `C[C@@H](OC(=O)Nc1c(-c2ccc(C(=O)NC34CC(CO)(C3)C4)cn2)nnn1C)c1cccnc1Cl` [Compound 13], 251 nM.
The result for `C[C@@H](OC(=O)Nc1c(-c2ccc(C(=O)Nc3ccccc3)cn2)nnn1C)c1cccnc1Cl` [Compound 14, (R)-1-(2-chloro-pyridin-3-yl)-ethyl (1-methyl-4-(5-(phenyl-carbamoyl)-pyridin-2-yl)-1H-1,2,3-triazol-5-yl)carbamate] reads 256 nM; that for `C[C@@H](OC(=O)Nc1c(-c2ccc(C(=O)NC34CC(C(F)(F)F)(C3)C4)cn2)nnn1C)c1cccnc1Cl` [Compound 15, (R)-1-(2-chloro-pyridin-3-yl)ethyl (1-methyl-4-(5-((3-(trifluoro-methyl)bicyclo-[1.1.1]pentan-1-yl)carbamoyl)-pyridin-2-yl)-1H-1,2,3-triazol-5-yl)carbamate], 26.2 nM.
With `C[C@@H](OC(=O)Nc1c(-c2ccc(C(=O)NC3CCOCC3)cn2)nnn1C)c1cccnc1Cl` [Compound 16, (R)-1-(2-chloro-pyridin-3-yl)-ethyl (1-methyl-4-(5-((tetrahydro-2H-pyran-4-yl)-carbamoyl)-pyridin-2-yl)-1H-1,2,3-triazol-5-yl)carbamate] the figure was 3590 nM; with `C[C@@H](OC(=O)Nc1c(-c2ccc(C(=O)Nc3ccc(N4CCOCC4)cc3)cn2)nnn1C)c1cccnc1Cl` [Compound 17, (R)-1-(2-chloro-pyridin-3-yl)-ethyl (1-methyl-4-(5-((4-morph-olinophenyl)-carbamoyl)-pyridin-2-yl)-1H-1,2,3-triazol-5-yl)carbamate], 649 nM.
Consider `C[C@@H](OC(=O)Nc1c(-c2ccc(C(=O)NC34CC(C#N)(C3)C4)cn2)nnn1C)c1cc(F)cnc1F` [Compound 18, (R)-1-(2,5-difluoropyridin-3-yl)ethyl (4-(5-((3-cyanobicyclo[1.1.1]pentan-1-yl)carbamoyl)pyridin-2-yl)-1-methyl-1H-1,2,3-triazol-5-yl)carbamate], for which the concentration giving a half-maximal response (EC50) is 91.2 nM.
With `C[C@@H](OC(=O)Nc1c(-c2ccc(C(=O)Nc3ccnc(C(F)(F)F)c3)cn2)nnn1C)c1cc(F)cnc1F` [Compound 19, (R)-1-(2,5-difluoropyridin-3-yl)ethyl (1-methyl-4-(5-((2-(trifluoromethyl)pyridin-4-yl)carbamoyl)pyridin-2-yl)-1H-1,2,3-triazol-5-yl)carbamate] the figure was 16.6 nM.
For the compound `C[C@@H](OC(=O)Nc1c(-c2ccc(C(=O)NC34CC(F)(C3)C4)cn2)nnn1C)c1cc(F)cnc1F` [Compound 20, (R)-1-(2,5-difluoro-pyridin-3-yl)ethyl (4-(5-((3-fluoro-bicyclo[1.1.1]-pentan-1-yl)-carbamoyl)pyridin-2-yl)-1-methyl-1H-1,2,3-triazol-5-yl)carbamate], the concentration giving a half-maximal response (EC50) was 313 nM.
Turning to `C[C@@H](OC(=O)Nc1c(-c2ccc(C(=O)NC34CC(Cl)(C3)C4)cn2)nnn1C)c1cc(F)cnc1F` [Compound 21, (R)-1-(2,5-difluoro-pyridin-3-yl)ethyl (4-(5-((3-chloro-bicyclo[1.1.1]-pentan-1-yl)-carbamoyl)pyridin-2-yl)-1-methyl-1H-1,2,3-triazol-5-yl)carbamate], the EC50 is 44.8 nM.
The result for `C[C@@H](OC(=O)Nc1c(-c2ccc(C(=O)NC34CC(C(F)(F)F)(C3)C4)cn2)nnn1C)c1cc(F)cnc1F` [Compound 22, (R)-1-(2,5-difluoro-pyridin-3-yl)ethyl (1-methyl-4-(5-((3-(trifluorometh-yl)bicyclo[1.1.1]-pentan-1-yl)carbam-oyl)pyridin-2-yl)-1H-1,2,3-triazol-5-yl)carbamate] reads 84.8 nM; that for `C[C@@H](OC(=O)Nc1c(-c2ccc(C(=O)NC34CC(C(F)F)(C3)C4)cn2)nnn1C)c1cc(F)cnc1F` [Compound 23, (R)-1-(2,5-difluoro-pyridin-3-yl)ethyl (4-(5-((3-(difluoro-methyl)bicyclo-[1.1.1]pentan-1-yl)carbamoyl)-pyridin-2-yl)-1-methyl-1H-1,2,3-triazol-5-yl)-carbamate], 159 nM.

As usually defined, the EC50 is the concentration that produces a half-maximal response.

Values taken from patent US12503454B2, “LPA receptor antagonists and uses thereof” (Gilead Sciences, Inc., priority 2021, dated 2025).
